The text below walks through data of paper PMC10803265 (Nature Medicine, 2023).

Entries after “also recorded” stand apart in the source; their conditions may differ. Like-named read-outs stand apart in the source and are kept apart here.

In series [1] the test system is KRAS G12C. The following applies: single-agent divarasib; patients with detectable KRAS G12C ctDNA at C1D1; cited from earlier work.
For series [2] the following is noted: cited from earlier work.
For series [3], the system named is CYP3A4. The arrangement: method as in GDC-6036 Investigator's Brochure. The following applies: human hepatocyte culture; ref GDC-6036 Investigator's Brochure; cited from earlier work.
Series [4] has as its system non-small cell lung cancer. The following applies: cited from earlier work.
Series [5] has as its system KRAS G12C-positive CRC. The following applies: single-agent divarasib at 400 mg, patients with CRC; cited from earlier work.
Series [6] relates to xenograft models of KRAS G12C-positive lung tumors. The arrangement: method as in GDC-6036 Investigator's Brochure. To be noted: nonclinical xenograft models of KRAS G12C-positive lung tumors; ref GDC-6036 Investigator's Brochure; cited from earlier work.
In series [7] the test system is mice. The arrangement: method as in GDC-6036 Investigator's Brochure. The following applies: gavage, attributed to chemical irritation by the higher concentration drug formulation, ref GDC-6036 Investigator's Brochure; cited from earlier work.
For series [8], the system named is cynomolgus monkeys. Also on record: method as in GDC-6036 Investigator's Brochure. The following applies: ref GDC-6036 Investigator's Brochure, cited from earlier work.
The test system of series [9] is P-gp. Also on record: method as in GDC-6036 Investigator's Brochure. The following applies: in vitro; ref GDC-6036 Investigator's Brochure; cited from earlier work.
Series [10] concerns patients with KRAS G12C-positive CRC.
Method: Preliminary antitumor activity was determined by the investigator according to RECIST v1.1. […] PFS was defined as the time from first treatment to the first occurrence of disease progression or death from any cause during the study (whichever occurred first).
Series [11] has as its system BCRP. Also on record: method as in GDC-6036 Investigator's Brochure. To be noted: in vitro; ref GDC-6036 Investigator's Brochure; cited from earlier work.
A short description of series [12]: Divarasib plasma pharmacokinetics, non-compartmental analysis. In kind it is in vivo, human. To be noted: divarasib 400 mg QD in combination with cetuximab (250 mg/m^2 QW), n=21; C1D8 or C2D1 AUC0-24 / C1D1 AUC0-24; mean ± s.d. On the procedure: Pharmacokinetic parameters were estimated using non-compartmental analysis of concentration–time data. Plasma samples were evaluated for divarasib using a validated liquid chromatography tandem mass spectrometry assay. […] A stable labeled internal standard was used. Pharmacokinetic non-compartmental analysis was performed with nominal time using Phoenix WinNonlin (Certara USA, version 8.3). Graphical visualization was done using R (version 4.2.0; R Foundation for Statistical Computing). Pharmacokinetic samples at steady state were collected before dose, and at 0.5, 1, 2, 3, 4 and 8 h after dose on cycle 1 day 8 (C1D8) or on cycle 2 day 1 (C2D1).

The test system of series [13] is KRAS G12C. The arrangement: method as in earlier work. The following applies: in vitro; cited from earlier work.
Series [14] concerns pERK, pS6, DUSP6, SPRY4 in KRAS G12C-positive cancer cell lines. The arrangement: method as in GDC-6036 Investigator's Brochure. The following applies: ref GDC-6036 Investigator's Brochure; cited from earlier work.
For series [15], the system named is patients. To be noted: cited from earlier work.
The mark [16] stands for this setting: divarasib 400 mg QD single agent, multiple doses (C1D8 or C2D1), N 76, mean ± s.d.
[17] abbreviates: single-agent divarasib at 400 mg.
Where [18] appears, read: in combination with cetuximab, 29 patients.
Setting [19] is: AMG 510 all events, n=129, MRTX849 related only, n=17, ref Janne et al. 2019, Hong et al. 2020.
Setting [20] is: Phase I trial, one patient, ref Hong et al. 2020.

As usually defined, the Cmax is the maximum level reached in the sampled fluid or tissue. `C=CC(=O)N1CCN(c2nc(OC[C@@H]3CCCN3C)nc3c(F)c(-c4nc(N)cc(C)c4C(F)(F)F)c(Cl)cc23)[C@@H](C)C1` [divarasib]: the “patients with KRAS G12C VAF decline to below 0.5% at C3D1” value in series [1] is given as 45.7%. Also, in [2] (setting [16]), the AUC0-24 is 9130 ± 3160 ng·h/mL and the maximum concentration (Cmax) was 657 ± 185 ng/mL. The tmax in series [2] (divarasib 400 mg QD single agent, multiple doses (C1D8 or C2D1), N 76, median (range)) is 2.0 (0.5-8.0) hr. In addition, the RAUC0-24 in series [2] (divarasib 400 mg QD single agent, n=63, mean ± s.d.) is 1.4 ± 0.4 fold. Moreover, the mean half-life in series [2] (single dose of divarasib 400 mg as a single agent) is recorded as 17.6 ± 2.7 h. In series [3], the “CYP3A4 mRNA induction” value is reported as “induce messenger RNA (mRNA)” and the “CYP3A4 protein levels induction” value is “not protein levels”. In addition, in series [4] (setting [17]), the “confirmed ORR” value was 56.4% and the “median PFS” value is 13.1 months. Further, in series [5], the “confirmed ORR” value is recorded as 35.9% and the “median PFS” value is on record as 6.9 months. In addition, the “single-agent activity on tumor growth” value in series [6] is given as “inhibits tumor growth”. Besides, the microscopic findings entry in [7] is “laryngeal necrosis”. Moreover, the clinical signs result in series [8] (4-week toxicology studies in cynomolgus monkeys) is “gastrointestinal intolerance with retching and vomiting”. In addition, the hepatic transaminases result in series [8] (cynomolgus monkeys) was “minimal to mild transaminase elevation”. The P-gp transporter inhibition entry in [9] is on record as “inhibit”. For the same molecule, in series [10] (all grade 3), the “diarrhea leading to divarasib dose reduction, patients” value was 10.3%. Besides, the “vomiting leading to divarasib dose reduction, patients” value in series [10] (grade 1) stood at 3.4%. Besides, in [10] (setting [18]), the “TRAEs leading to divarasib dose interruptions, patients” value is 24.1%; the “TRAEs leading to divarasib dose modifications (interruption, reduction or withdrawal), patients” value was 34.5%; the “TRAEs leading to divarasib treatment withdrawals” value is reported as “no divarasib treatment withdrawals; also recorded: No patients withdrew”. For the same molecule, the BCRP transporter inhibition entry in series [11] was “inhibit”. Also, the RAUC0-24 in [12] worked out at 1.2 ± 0.4 fold. Further, the “potency compared to sotorasib and adagrasib” value in series [13] is recorded as 5 to 20 times. For the same molecule, in [14], the “downstream MAPK pathway components (pERK, pS6) and KRAS target genes (DUSP6, SPRY4)” value is “inhibited”.
For `C=CC(=O)N1CCN(c2nc(=O)n(-c3c(C)ccnc3C(C)C)c3nc(-c4c(O)cccc4F)c(F)cc23)[C@@H](C)C1` [sotorasib], in [15] (setting [19]), the “all grade adverse events: diarrhea” value is on record as 29.5%, the “all grade adverse events: nausea” value was 20.9% and the “all grade adverse events: vomiting” value is reported as 17.8%. In series [15] (Phase I trial, 3 out of 129, ref Hong et al. 2020), the “Grade 3 treatment-related increased AST, patients” value was 2.3%. Also, the “Grade 3 treatment-related increased ALT, patients” value in series [15] (Phase I trial, 6 out of 129, ref Hong et al. 2020) was 4.7%. In addition, the “any grade increased ALT, patients” value in series [15] (Phase I trial, 15 out of 129, ref Hong et al. 2020) is recorded as 11.6%. Also, in series [15] (Phase I trial, 17 out of 129, ref Hong et al. 2020), the “any grade increased AST, patients” value is reported as 13.2%. Also, in [15] (setting [20]), the “Grade 4 treatment-related elevation of ALT, patients” value is given as 0.8%; the “discontinued treatment because of Grade 3 treatment-related increase in ALT and AST levels, patients” value is listed as 0.8%. In addition, the ORR in series [4] (phase 2 trial) is given as 37%. The ORR in series [4] (phase 3 trial) is 28%.
